The subject of data set [1] is AMP-activated protein kinase (AMPK) pathway. As to conditions: via AMPK pathway; ref [58],[61]; cited from earlier work. An excerpt:
(§1) Modern unhealthy lifestyles, especially a HFD and lack of exercise, lead to the large accumulation of lipids in the human body, and the excess FFAs overloaded in the body are transferred from the bloodstream to the liver. If the rate of lipid oxidation is far slower than the synthesis rate, the large amounts of lipids accumulated in the liver will result in lipid metabolism disorder, steatosis, and ultimately the development of NAFLD [4, 58].

The test system of another data set is PPARα pathway. As to conditions: activating PPARα pathway; ref [26],[27]; cited from earlier work. An excerpt: (§2) Bioactive peptides (BPs) have been produced from diverse plant and animal proteins, such as mammals, poultry, beans, mollusks, fish, Antarctic krill, algae, etc. Beyond their important nutritional benefits, BPs show remarkable bioactivity and pharmacological functions, with numerous potential applications for human health. […] For example, GINY and DQW from α-lactalbum ...

Data set [2] concerns liver dysfunction caused by hyperglycemia. The conditions noted are these: ref [29]; cited from earlier work.
From the text: as §2

Another data set concerns the target T1, pancreatic lipase (PL) (Sus scrofa, UniProt P00591).
T1 construct: purchased Solarbio Life Sciences Co., Ltd. (Beijing, China)
T1 sequence (P00591 1-450): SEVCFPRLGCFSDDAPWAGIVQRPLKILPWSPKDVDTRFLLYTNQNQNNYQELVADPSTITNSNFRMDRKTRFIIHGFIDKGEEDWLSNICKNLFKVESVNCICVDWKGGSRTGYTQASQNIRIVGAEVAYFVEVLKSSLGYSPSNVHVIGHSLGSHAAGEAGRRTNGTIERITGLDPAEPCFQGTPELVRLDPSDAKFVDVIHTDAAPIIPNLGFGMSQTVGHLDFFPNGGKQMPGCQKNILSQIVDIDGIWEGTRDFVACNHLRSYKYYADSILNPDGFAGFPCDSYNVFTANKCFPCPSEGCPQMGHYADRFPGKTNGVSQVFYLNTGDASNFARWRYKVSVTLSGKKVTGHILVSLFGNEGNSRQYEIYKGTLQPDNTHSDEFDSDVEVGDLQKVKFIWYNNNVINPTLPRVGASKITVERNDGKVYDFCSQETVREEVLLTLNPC
Briefly: Pancreatic lipase (PL) inhibitory activity. The conditions noted are these: PNPB substrate, 15 min pre-incubation, 20 min, 37 °C; absorbance 405 nm. Format: biochemical.

For the next data set, the system named is OA-induced HepG2 cells. Briefly: Intracellular ROS level (DCFH-DA), OA-induced NAFLD cell model. Format: cell-based, human. As to conditions: pretreated, compared to model group; concentration not given. On the procedure: The OA-induced NAFLD cell model was established according to previous methods. HepG2 cells in the logarithmic growth phase were seeded into 96-well plates and cultivated in a humidified atmosphere of 5% CO2 at 37 °C for 24 h. OA was dissolved in 10% BSA and added to the DMEM with a final concentration of 80 μM. After this, the cells were cultured for 24 h, and the morphologies of the HepG2 cells were observed and photographed using a microscope. The HepG2 cells in the control wells were cultured for 24 h in DMEM without OA.
The ROS level was determined by the dichlorodihydrofluorescein diacetate (DCFH-DA) staining method. Briefly, HepG2 cells were seeded in 12-well plates and DCFH-DA was diluted to a final concentration of 10 μM at a ratio of 1:1000. Next, after the removal of the cell culture medium, the cells were washed three times with PBS. After this, the HepG2 cells were incubated with 10 μM DCFH-DA for 30 min at 37 °C. After washing with PBS three times again, the fluorescence of the HepG2 cells was monitored at 485 nm excitation (535 nm emission). Finally, images were acquired using a fluorescence microscope to observe the fluorescence intensity of DCFH-DA.

The next data set concerns FFA-damaged HepG2 cells. The conditions noted are these: regulating PERK/eIF2α and PERK/IκBα pathways; ref [28]; cited from earlier work.
From the text: as §2

In a further data set the test system is LXRα/SREBPs/HMGR pathway. As to conditions: via LXRα/SREBPs/HMGR pathway; ref [59],[60]; cited from earlier work.
From the text: as §1

The subject of a further data set is HepG2 cells. Briefly: MTT viability of HepG2 cells. Format: cell-based, human. As to conditions: 100 μM, 24 h. On the procedure: HepG2 human hepatoma cell line was purchased from Shanghai Cell Bank, Chinese Academy of Sciences. HepG2 cells were cultured in DMEM containing […] streptomycin, 50 U/mL penicillin, 2 mM glutamine, and 10% FCS in a humidified atmosphere of 5% CO2 at 37 °C.
The viability of the HepG2 cells was evaluated using the MTT assay via a previous method. In brief, S7 and S10 were dissolved in growth medium to form a peptide solution with a concentration of 200 μM. Then, the peptide solution was added to the growth medium of HepG2 cells with final concentrations of 10, 50, and 100 μM, and the cells were incubated for 24 h with peptide administration. The control group was treated with the growth medium without peptides. SV (1.0 mM) was used as a positive control.

pIC50: −log10 of the molar value. Where no end group is shown, it is not given here.

One may read the pIC50 as the negative decadic logarithm of the IC50, by convention in mol/L.

Description for pancreatic lipase (PL): Sodium taurocholate, pancreatic lipase, cholesterol esterase, and Tris buffer solution were purchased from Solarbio Life Sciences Co., Ltd. (Beijing, China). […] P-nitrophenyl butyrate (PNPB) was purchased from Shanghai Macleans Biochemical Co., Ltd. (Shanghai, China).
The in vitro pancreatic lipase (PL) inhibitory activity was measured using the method of Cai et al. [78], with slight modifications. Pancreatic lipase was first dissolved in 100 mM Tris buffer (2 mg/mL) and the supernatant was obtained by centrifugation. Tris buffer was then prepared as 0.1% (w/v) PNPB solution. The 50 μL peptide sample was incubated with 50 μL Tris buffer solution and 50 μL pancreatic lipase solution at 37 °C for 15 min, and then 100 μL PNPB solution was added. After 20 min at 37 °C, the absorbance value was measured at 405 nm. In the blank group, pure water was used instead of a sample. In the blank control group, the samples were replaced with pure water and the pancreatic lipase solution was replaced with a buffer solution. […] The pancreatic lipase (PL) inhibitory rate was calculated using the following formula:PL inhibitory rate (%) = [1 − (A − A0)/(B − B0)] × 100%(2) where A, A0, B, and B0 are the absorbance values determined at 405 nm of the sample, the sample control, the blank, and the blank control after the reaction, respectively.

On to “VIAPW [antioxidant peptide from Miichthys miiuy muscle]”, for which the “TG and TC content” value in data set [1] is “decrease the content of TG and TC”.
For GINY [peptide from α-lactalbumin], the “Alleviation of NAFLD” value in the data set on PPARα pathway was “decrease lipid deposition and oxidative stress”.
For the compound “IRWWW [antioxidant peptide from Miichthys miiuy muscle]”, the “TG and TC content” value in data set [1] is “decrease the content of TG and TC”.
With VHVV [A tetrapeptide (VHVV) from soy], the “Effect on liver dysfunction” value in data set [2] is “strong preventive effect on liver dysfunction caused by hyperglycemia”.
Take GIEWA [S10]: the pIC50 against pancreatic lipase (PL) was 2.89.
With FSGLR [S7], the negative-log IC50 (pIC50) on pancreatic lipase (PL) is 2.78.
With `CC(=O)N[C@@H](CS)C(=O)O` [NAC], in the data set with OA-induced HepG2 cells, the “ROS fluorescence intensity” value is recorded as “showed varying degrees of decrease compared to the model group”.
Consider “VLATSGPG [VLATSGPG (VLA), peptide from salmon skins]”, for which the “Lipid content and inflammation” value in the data set with FFA-damaged HepG2 cells is “decrease the lipid content and inflammation”.
Take “VFVRN [derived from chickpea protein hydrolysate]”: in the data set with LXRα/SREBPs/HMGR pathway, the “Hypolipidemic activity” value was “strong hypolipidemic activity”.
Consider “VPDDD [S9, antioxidant peptide separated from swim bladder hydrolysate of the miiuy croaker]”, for which the “Viability of HepG2 cells vs control” value in the data set on HepG2 cells was “remarkably lower than that of the control (p < 0.05)”.

Values taken from PMC11857530, “Antioxidant Peptides from Miiuy Croaker Swim Bladders: Ameliorating Effect and Mechanism in NAFLD Cell Model through Regulation of Hypolipidemic and Antioxidant Capacity” (Marine Drugs, 2025).
